According to US12377152B2, “Compounds for degrading alpha-synuclein aggregates and uses thereof” (APRINOIA THERAPEUTICS LIMITED, priority 2019, dated 2025):

Key:
[1] = biological target: α-synuclein aggregates (Homo sapiens (Human), UniProt P37840); assay: ReNcell VM α-synuclein aggregation assay; assay type: cell-based; conditions: for DC50: ReNcell VM cells, read-out: Activity (DC50, concentration at which 50% of α-synuclein aggregates has been degraded)
Protocol: The ReNcell VM α-synuclein aggregation assay was conducted at Charles River Laboratories (CRL). ReNcell VM is an immortalized human neural progenitor cell line derived from the ventral mesencephalon region of the brain. ReNcell VM cells were selected as in vitro cellular model for the α-synuclein aggregation assay, based on their growth features, differentiation potential into terminally differentiated neurons and amenability to adenoviral transduction. Aggregated human wild type α-synuclein was overexpressed through adenoviral delivery. Aggregated α-synuclein was detected with the aggregate-selective anti-α-synuclein antibody MJFR14 using immunocytochemistry; total α-synuclein levels were detected with Syn205 (α/β-synuclein-specific antibody).
The ReNcell VM α-synuclein aggregation assay was applied for compound screening to identify compounds capable of degrading α-synuclein aggregates. […] Immunoreactivity toward aggregated (MJFR14) and total α-synuclein (Syn205) was quantified using high content-based segmentation of immunoactive areas in immunocytochemical images (performed with the IN Cell 2200 (GE Healthcare)), followed by quantification of immunofluorescent intensity (performed by CRL's developed algorithm using IN Cell Developer Toolbox software).
Percentage effect (PE): Inhibition in comparison to BLANK (0.1% DMSO).
PE=100−(signal of compound/average signal BLANK)×100
Compound-induced cytotoxicity (% remaining cells)
% remaining cells=(nuclei count of compound/average nuclei count of BLANK)×100

[2] = biological target: T1, α-synuclein (Homo sapiens (Human), UniProt P37840); assay: In vivo assay for degrading α-synuclein aggregates (transgenic Line61 mice); conditions: 25 mpk, once intravenous, hemibrain, WES System
Protocol: Male transgenic Line61 mice at age of three-month-old were used for the study. Mice were treated once via intravenous injection with the compound 132168 (25 mpk). Plasma and brain samples were collected at 0.25, 0.5, 1, 2, 4, 8 and 24 h post treatment. Blood samples were collected via cardiac puncture into MiniCollect® 0.5 mL K2EDTA (Potassium ethylenediaminetetraacetic acid) tubes. The blood samples were centrifuged at 3000×g for 10 minutes at room temperature (22° C.). Plasma was transferred to a pre-labeled 1.5 ml LoBind Eppendorf tube (2 aliquot, each ˜[…]), frozen on dry ice and stored at −80° C. until analysis. For brain samples, a perfusion with 0.9% saline was performed before collection. Brain was weighed, hemisected on a cooled surface, weighed and snap frozen. The hemibrain was used for WES System analysis of human α-synuclein in soluble and insoluble fraction. Upon treatment of compound 132168, insoluble α-synuclein fraction decreases 30% compared to DMSO vehicle control, reflecting the reduction of insoluble α-synuclein aggregates.

[3] = In vivo pharmacokinetic study; conditions: mice; for AUC(0-t) / Cmax / Tmax / half-life: mouse
Protocol: To determine whether the compounds of the present disclosure are capable of crossing the blood brain barrier (BBB), example compound 132168 was administered to mice in a pharmacokinetic study (10 and 25 mg/kg, intravenous).
Animal Husbandry: Mice were housed at animal room environment with ventilation 15 times/hour, lighting 12 hours/day, temperature 20° C. to 24° C. and humidity 40% to 70%. The study rooms were disinfected and cleaned prior to the start of the study and the operation area was cleaned after each dosing or sampling during the study conduct. All animals had free access to food and water during the study. The animals had access to Certified Rodent Diet and water ad libitum. The nutritional composition and levels of contaminants of the diet and impurities and contaminants of the water were monitored by third organization. The health status of the animals was evaluated in accordance with accepted animal husbandry procedures and deemed suitable for experimental use.
Sample Collection & Processing: Approximately 110 μL of whole blood were collected from all animals via facial or cardiac puncture under anesthesia with Isoflurane into test tubes containing potassium ethylenediaminetetraacetate (K2EDTA) at 0.25, 0.5, 1, 2, 4, 8 and 24 hr post dose. Brian samples were collected at 0.25, 0.5, 1, 2, 4, 8 and 24 hours post dose. A perfusion with pre-cold saline will be conducted via cardiac puncture before brain collection. Blood samples were centrifuged at 2000 g at 4° C. for 5 minutes to obtain plasma samples by transferring the supernatants into new tubes. All plasma and brain samples were stored at approximately −70° C. until analysis.
Bioanalytical Method Development: The concentrations of compound in plasma and brain samples were determined using a liquid chromatography with tandem mass spectrometry (LC-MS/MS) based method.

[4] = biological target: T1, α-synuclein; assay: In vitro fluorometric α-synuclein binding assay; conditions: 2 μM α-synuclein, 37° C., 1 hour, fluorescence
Protocol: (§1) (A) Expression and purification of recombinant wild-type human α-synuclein: 0.5 mM IPTG was used to induce production of wild type human α-synuclein by bacteria transformed with a full-length α-synuclein expression plasmid. After shaking at 16° C. for 20 hours, cell pellet was resuspended in lysis buffer (10 mM Tris, 1 mM EGTA, 0.75 mM NaCl, 1 mM PMSF, pH 7.5) and lysed by sonication followed by centrifugation (6000 g, 30 min, 4° C.). The supernatant was then boiled at 95° C. for 15 min with manual agitation by every 5 minutes, followed by centrifugation (6000 g, 30 min, 4° C.). Supernatant was dialyzed with (10 mM Tris, 1 mM EGTA, 50 mM NaCl, pH 7.5) buffer and concentrated with concentrator. The collected sample was loaded onto a Superdex200 column, the flow-through fraction was then loaded onto a Q-HP column. Collected fractions with α-synuclein eluates were pooled, concentrated and stored at −80° C.
(§2) (B) Preparation of aggregated α-synuclein: 5 mg/mL of α-synuclein in PBS buffer (pH 7.4) was incubated in tube with at 37° C. with shaking (700 rpm) for 5-10 days.
(C) In vitro fluorometric α-synuclein binding assays: 2 μM α-synuclein was incubated with serially diluted compound (three-fold serial dilutions, from 10 to 0.001 μM) in a 96-well plate at 37° C. for 1 hour. Fluorescence intensity was read by microplate spectrometer. Compound Kd values were calculated using the following equation: Y=Bmax*X/(Kd+X), where X is the concentration of compound; Y is the fluorescence signal of (compound+α-synuclein)−(compound+DMSO); and Bmax is the maximum signal.

[5] = biological target: T1, α-synuclein; assay: PBB5 competition assay; assay type: binding; conditions: 2 μM α-synuclein, 0.26 μM PBB5, 37° C., 1 hour
Protocol: as §1, §2
(D) PBB5 competition assay: 2 μM of α-synuclein was incubated with 0.26 μM 2-(4-(2-(methylamino)pyridine-5-yl)-1,3-butadiene-1-yl)benzothiazole-6-ol (PBB5) and serially diluted compound (three-fold serial dilution, from 10 to 0.001 μM) in a 96-well plate at 37° C. for 1 hour. Fluorescence intensity (excitation/emission=530/690 nm) of PBB5 was read by microplate spectrometer. Percentage of competition was calculated using the following equation: (Max−well of compound alone)/(Max−Min)*100%, where Max=(α-synuclein+PBB5) signals−(buffer+PBB5) signals; and Min=(buffer+PBB5) signals−(buffer+PBB5) signals. The IC50 value of each compound was calculated with GraphPad Prism software using the “4 Parameter Logistic Model or Sigmoidal Dose-Response Model”: Y=Bottom+(Top−Bottom)/(1+(IC50/X)^HillSlope)

inhibition of MJFR14 immunoreactivity ([1]; 6-day treatment, immunocytochemical images)	decrease of insoluble α-synuclein fraction compared to DMSO vehicle control [2] [%]	blood brain barrier (BBB) penetration ([3]; 10 and 25 mg/kg intravenous)	AUC(0-t) ([3]; Brain, 10 mg/kg intravenous) [ng·h/mL]	Cmax ([3]; Brain, 10 mg/kg intravenous) [ng/mL]	Tmax ([3]; Brain, 10 mg/kg intravenous) [h]	half-life ([3]; Brain, 10 mg/kg intravenous) [h]	AUC(0-t) ([3]; Brain, 25 mg/kg intravenous) [ng·h/mL]	Cmax ([3]; Brain, 25 mg/kg intravenous) [ng/mL]	Tmax ([3]; Brain, 25 mg/kg intravenous) [h]	AUC(0-t) ([3]; Plasma, 10 mg/kg intravenous) [ng·h/mL]	half-life ([3]; Plasma, 10 mg/kg intravenous) [h]	AUC(0-t) ([3]; Plasma, 25 mg/kg intravenous) [ng·h/mL]	half-life ([3]; Plasma, 25 mg/kg intravenous) [h]	SMILES	DC50 [1] [nM]	Kd [4] [nM]	IC50 [5] [nM]
clear inhibition	30	able to penetrate BBB	1330	319	0.5	5.88	4070	581	4	17800	2.87	48700	2.12	CN(C)c1ccc(-c2ccc(-c3nc4ccc(NCCCCCOc5ccc6c(c5)CN(C5CCC(=O)NC5=O)C6=O)cc4s3)c(C(F)(F)F)c2)cn1 (stereo not drawn) [Compound 132168]	10 to 900		
														CN(C)c1ccc(-c2ccc(-c3cn4cc(OCCOCCOc5ccc6c(c5)CN(C5CCC(=O)NC5=O)C6=O)ccc4n3)cc2)cn1 (stereo not drawn) [Compound 177033]	> 10000	650	630
